Experimental data published in ChEMBL document CHEMBL3751802, “Identification of six new lupane-type triterpenoids from Acanthopanax koreanum leaves and their tyrosinase inhibitory activities” (Bioorg Med Chem Lett, 2016).

How the values were obtained:
[1] = target: T1, Tyrosinase (Agaricus bisporus) (UniProt O42713); assay: Inhibition of mushroom tyrosinase using L-tyrosine as substrate at >12.5 uM measured every 1 min for 20 mins by spectrophotometric assay relative to control
T1 sequence (whole entry): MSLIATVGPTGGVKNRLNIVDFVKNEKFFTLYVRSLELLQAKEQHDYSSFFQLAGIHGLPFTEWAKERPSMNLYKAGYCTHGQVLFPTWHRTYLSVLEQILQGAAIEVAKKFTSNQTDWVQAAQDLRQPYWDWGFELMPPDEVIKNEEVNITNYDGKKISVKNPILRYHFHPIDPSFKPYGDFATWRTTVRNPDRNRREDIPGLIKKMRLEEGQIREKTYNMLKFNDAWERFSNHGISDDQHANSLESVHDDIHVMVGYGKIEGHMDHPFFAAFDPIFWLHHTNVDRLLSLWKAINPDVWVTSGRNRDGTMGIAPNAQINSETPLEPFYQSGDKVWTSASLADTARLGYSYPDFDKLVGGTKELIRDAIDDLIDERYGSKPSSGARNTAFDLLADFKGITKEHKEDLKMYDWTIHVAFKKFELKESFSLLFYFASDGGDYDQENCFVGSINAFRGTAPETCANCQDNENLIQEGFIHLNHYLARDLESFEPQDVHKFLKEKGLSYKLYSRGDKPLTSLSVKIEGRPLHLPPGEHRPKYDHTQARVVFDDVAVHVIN

[2] = target: T2, Tyrosinase (Agaricus bisporus, UniProt O42713); assay: Inhibition of mushroom tyrosinase using L-tyrosine as substrate measured every 1 min for 20 mins by spectrophotometric assay
T2 sequence (O42713 whole entry): T1 sequence (whole entry)

Row | SMILES | inhibition [1] | IC50 [2]
1 | C=C(C)[C@@H]1CC[C@]2(C(=O)O)CC[C@]3(C)[C@H](CC[C@@H]4[C@@]5(C)CC[C@@H](O)C(C)(C(=O)O)[C@@H]5CC[C@]43C)[C@@H]12 (some centres not stated) | < 100% | –
2 | C[C@@]12CCC[C@@](C)(C(=O)O[C@@H]3O[C@H](CO)[C@@H](O)[C@H](O)[C@H]3O)[C@H]1CC[C@@]13C[C@H](CC[C@H]12)[C@@](O)(CO)C3 | < 100% | –
3 | C=C(CO)[C@@H]1CC[C@]2(C(=O)O)CC[C@]3(C)[C@H](C[C@@H](O)[C@@H]4[C@@]5(C)CC[C@@H](O)C(C)(C)[C@@H]5CC[C@]43C)[C@@H]12 | < 100% | –
4 | C=C(CO)[C@@H]1CC[C@]2(C(=O)O)CC[C@]3(C)[C@H](C[C@@H](O)[C@@H]4[C@@]5(C)CC[C@@H](O)[C@@](C)(C=O)[C@@H]5CC[C@]43C)[C@@H]12 | < 100% | 63.5 µM
5 | CC1=CC[C@@H](C(C)(C)O[C@@H]2O[C@H](CO)[C@@H](O)[C@H](O)[C@H]2O)CC1 | < 100% | 16.9 µM

Results, then the compound that gave them:

Row | inhibition [1] | IC50 [2] | SMILES
6 | < 100% | – | CC(=O)[C@@H]1CC[C@]2(C(=O)O)CC[C@]3(C)[C@H](C[C@@H](O)[C@@H]4[C@@]5(C)CC[C@@H](O)C(C)(C(=O)O)[C@@H]5CC[C@]43C)[C@@H]12 (some centres not stated)
7 | < 100% | 25.8 µM | C=C(C)[C@@H]1CC[C@]2(C(=O)O)CC[C@]3(C)[C@H](CC[C@@H]4[C@@]5(C)CC[C@@H](O)[C@@](C)(C=O)[C@@H]5CC[C@]43C)[C@@H]12
8 | < 100% | – | COC(OC)[C@H](C)[C@@H]1CC[C@]2(C(=O)O)CC[C@]3(C)[C@H](CC[C@@H]4[C@@]5(C)CC[C@@H](O)[C@@](C)(C(=O)O)[C@@H]5CC[C@]43C)[C@@H]12
9 | < 100% | 8.61 µM | C[C@]12CC[C@@H](O)[C@@](C)(C(=O)O)[C@@H]1CC[C@]1(C)[C@@H]2CC[C@@H]2[C@H]3[C@H]([C@](C)(O)CO)CC[C@]3(C(=O)O)CC[C@]21C
10 | < 100% | – | C=C(CO)[C@@H]1CC[C@]2(C(=O)O)CC[C@]3(C)[C@H](C[C@@H](O)[C@@H]4[C@@]5(C)CC[C@@H](O)[C@@](C)(C(=O)O)[C@@H]5CC[C@]43C)[C@@H]12
11 | < 100% | – | C=C(C)[C@@H]1CC[C@]2(C(=O)O)CC[C@]3(C)[C@H](C[C@@H](O)[C@@H]4[C@@]5(C)CC[C@@H](O)C(C)(C=O)[C@@H]5CC[C@]43C)[C@@H]12 (some centres not stated)
12 | < 100% | – | C[C@H](C=O)[C@@H]1CC[C@]2(C(=O)O)CC[C@]3(C)[C@H](CC[C@@H]4[C@@]5(C)CC[C@@H](O)[C@@](C)(C(=O)O)[C@@H]5CC[C@]43C)[C@@H]12
13 | < 100% | – | C[C@H](CO)[C@@H]1CC[C@]2(C(=O)O)CC[C@]3(C)[C@H](CC[C@@H]4[C@@]5(C)CC[C@@H](O)[C@@](C)(C=O)[C@@H]5C[C@H](O)[C@]43C)[C@@H]12
